Data on four molecules can be found in ChEMBL document CHEMBL1255168, “1-Aryl-3-(1-acylpiperidin-4-yl)urea inhibitors of human and murine soluble epoxide hydrolase: structure-activity relationships, pharmacokinetics, and reduction of inflammatory pain” (J Med Chem, 2010).

As a reminder, the IC50 is the concentration at which inhibition is half-maximal. A lower IC50 goes with higher potency.

Structures are written as SMILES.

Assay [1] has as its target T1, Bifunctional epoxide hydrolase 2 (Homo sapiens, UniProt P34913).
T1 sequence (P34913 whole entry): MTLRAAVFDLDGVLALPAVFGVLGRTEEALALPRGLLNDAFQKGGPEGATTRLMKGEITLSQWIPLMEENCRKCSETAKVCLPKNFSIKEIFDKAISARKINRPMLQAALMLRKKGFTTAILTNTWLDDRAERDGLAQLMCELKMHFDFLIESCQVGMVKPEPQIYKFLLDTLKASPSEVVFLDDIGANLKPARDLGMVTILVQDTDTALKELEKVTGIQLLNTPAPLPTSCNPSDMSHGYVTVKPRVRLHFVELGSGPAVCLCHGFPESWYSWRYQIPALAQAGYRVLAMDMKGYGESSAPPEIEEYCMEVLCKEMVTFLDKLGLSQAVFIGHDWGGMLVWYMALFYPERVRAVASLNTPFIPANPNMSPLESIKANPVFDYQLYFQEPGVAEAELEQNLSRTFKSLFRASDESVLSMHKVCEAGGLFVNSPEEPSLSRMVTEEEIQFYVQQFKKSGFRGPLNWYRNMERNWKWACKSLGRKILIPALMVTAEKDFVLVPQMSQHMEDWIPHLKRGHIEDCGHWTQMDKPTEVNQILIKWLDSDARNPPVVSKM
Description: Inhibition of human recombinant soluble epoxide hydrolase by fluorescence assay

In assay [2] the target is T2, Bifunctional epoxide hydrolase 2 (Mus musculus, UniProt P34914).
T2 sequence (P34914 whole entry): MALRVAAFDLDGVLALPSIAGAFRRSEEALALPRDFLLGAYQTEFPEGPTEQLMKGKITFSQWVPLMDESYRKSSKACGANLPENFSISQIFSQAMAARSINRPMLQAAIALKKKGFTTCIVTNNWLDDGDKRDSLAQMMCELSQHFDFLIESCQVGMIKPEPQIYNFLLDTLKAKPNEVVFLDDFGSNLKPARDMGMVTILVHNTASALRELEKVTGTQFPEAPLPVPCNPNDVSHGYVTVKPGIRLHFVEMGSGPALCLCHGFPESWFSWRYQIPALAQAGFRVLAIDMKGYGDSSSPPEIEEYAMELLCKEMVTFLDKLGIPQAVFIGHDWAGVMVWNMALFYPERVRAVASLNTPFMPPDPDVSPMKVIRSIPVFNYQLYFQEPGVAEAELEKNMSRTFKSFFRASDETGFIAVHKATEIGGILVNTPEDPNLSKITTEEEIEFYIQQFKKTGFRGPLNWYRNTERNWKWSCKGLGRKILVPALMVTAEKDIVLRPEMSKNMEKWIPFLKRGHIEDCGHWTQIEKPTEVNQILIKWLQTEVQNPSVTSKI
Description: Inhibition of mouse recombinant soluble epoxide hydrolase by fluorescence assay

With `CCC(=O)N1CCC(NC(=O)Nc2cc(OC)c(OC)c(OC)c2)CC1`, in assay [1], the IC50 was > 5000 nM.
Take `CCC(=O)N1CCC(NC(=O)Nc2ccc(C(=O)OC)cc2)CC1`: the values for the half-inhibitory concentration (IC50) in assay [2] and in assay [1] were 64 nM and 140 nM, respectively.
The matching figures for `CCC(=O)N1CCC(NC(=O)Nc2ccc3c(c2)OCO3)CC1`: 100 nM and 61 nM.
Turning to `O=C(Nc1ccc(OC(F)(F)F)cc1)NC1CCN(C(=O)CN2CCN(Cc3ccccc3)CC2)CC1`, the IC50 was found to be 18 nM in assay [2] and 1.5 nM in assay [1].
